Five compounds from PMC12136057, “Structural characterization of the ABC transporter DppABCDF in Escherichia coli reveals insights into dipeptide acquisition” (PLOS Biology, 2025) can be followed below.

Molecules are shown by their SMILES. Peptide text beside a SMILES is read from it.

The target of one assay is T1, DppA (Escherichia coli, UniProt P23847).
T1 construct: soluble periplasmic protein, His-tagged, Ni-NTA with guanidine wash to remove endogenous peptides; expressed in E. coli
T1 sequence (P23847 29-535): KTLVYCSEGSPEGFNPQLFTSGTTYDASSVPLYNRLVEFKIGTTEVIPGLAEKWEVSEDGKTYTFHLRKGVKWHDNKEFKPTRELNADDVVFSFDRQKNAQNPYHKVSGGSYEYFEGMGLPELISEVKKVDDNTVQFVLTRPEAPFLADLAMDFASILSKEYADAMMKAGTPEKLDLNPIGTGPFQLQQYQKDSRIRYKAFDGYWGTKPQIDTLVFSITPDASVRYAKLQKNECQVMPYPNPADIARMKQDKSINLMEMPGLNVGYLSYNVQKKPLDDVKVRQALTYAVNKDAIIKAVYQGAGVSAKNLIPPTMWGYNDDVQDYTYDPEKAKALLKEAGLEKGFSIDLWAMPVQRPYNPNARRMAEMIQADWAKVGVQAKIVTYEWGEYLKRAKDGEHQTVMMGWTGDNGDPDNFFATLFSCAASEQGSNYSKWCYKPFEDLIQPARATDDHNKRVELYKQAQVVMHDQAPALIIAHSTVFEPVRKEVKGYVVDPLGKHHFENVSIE
Briefly: isothermal titration calorimetry. It counts as binding. To be noted: read-out: affinity. A general note: In ITC the heat of successive injections is recorded.

In assay [1] the test system is T2, DppABCDF full transporter.
T2 construct: gene dppD; heteropentamer; structure: DppA C-terminal His-tag and Strep tag, GDN; ATPase: DppBCDF in MSP1E3D1/POPG nanodiscs plus separately purified DppA; Dipeptide transport system permease protein DppB; Dipeptide transport system permease protein DppC
T2 sequence (P0AAG0 whole entry, one chain of several): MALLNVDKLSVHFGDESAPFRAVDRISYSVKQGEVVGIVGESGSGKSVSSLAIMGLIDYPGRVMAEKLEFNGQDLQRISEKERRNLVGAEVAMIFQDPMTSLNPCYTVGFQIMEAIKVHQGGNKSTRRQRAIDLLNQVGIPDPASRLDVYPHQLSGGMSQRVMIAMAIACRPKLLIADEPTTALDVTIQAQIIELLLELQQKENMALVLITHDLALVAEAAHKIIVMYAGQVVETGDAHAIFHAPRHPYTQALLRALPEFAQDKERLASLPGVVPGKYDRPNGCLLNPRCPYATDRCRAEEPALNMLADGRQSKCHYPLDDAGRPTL
T2 sequence (P0AEF8 whole entry, one chain of several, further chain): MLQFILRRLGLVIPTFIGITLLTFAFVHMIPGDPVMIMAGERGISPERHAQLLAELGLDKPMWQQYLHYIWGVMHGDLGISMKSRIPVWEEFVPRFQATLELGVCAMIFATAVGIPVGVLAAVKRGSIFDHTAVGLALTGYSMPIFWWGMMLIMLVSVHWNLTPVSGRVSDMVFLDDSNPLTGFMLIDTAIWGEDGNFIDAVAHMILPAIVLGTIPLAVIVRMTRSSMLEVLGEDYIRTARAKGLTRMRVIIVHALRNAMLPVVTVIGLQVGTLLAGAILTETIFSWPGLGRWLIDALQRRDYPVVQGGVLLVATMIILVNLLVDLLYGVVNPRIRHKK
T2 sequence (P0AEG1 whole entry, one chain of several, further chain): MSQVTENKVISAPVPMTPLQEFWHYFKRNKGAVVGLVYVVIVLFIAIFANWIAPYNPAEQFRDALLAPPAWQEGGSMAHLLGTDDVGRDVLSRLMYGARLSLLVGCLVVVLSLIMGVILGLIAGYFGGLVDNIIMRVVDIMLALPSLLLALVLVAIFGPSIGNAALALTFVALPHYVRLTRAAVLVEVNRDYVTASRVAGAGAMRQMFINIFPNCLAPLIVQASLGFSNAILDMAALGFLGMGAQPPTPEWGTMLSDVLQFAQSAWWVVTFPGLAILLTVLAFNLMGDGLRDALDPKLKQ
T2 sequence (P37313 whole entry, one chain of several, further chain): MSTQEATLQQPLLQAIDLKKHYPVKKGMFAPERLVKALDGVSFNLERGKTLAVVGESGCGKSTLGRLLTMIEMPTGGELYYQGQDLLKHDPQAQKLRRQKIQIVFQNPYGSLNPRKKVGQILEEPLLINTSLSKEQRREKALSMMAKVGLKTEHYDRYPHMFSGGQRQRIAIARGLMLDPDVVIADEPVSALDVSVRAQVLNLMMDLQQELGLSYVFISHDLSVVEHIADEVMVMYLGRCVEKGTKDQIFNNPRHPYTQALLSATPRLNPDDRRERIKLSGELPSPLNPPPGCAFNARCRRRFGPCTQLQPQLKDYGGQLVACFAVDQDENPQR
The experiment in a line: malachite green phosphate ATPase assay, nanodiscs. It counts as biochemical, Escherichia coli. The following applies: DppA added, Mg2+, pH 7.5, 37 °C; with or without Ala-Ala.

For assay [2], the target named is T3, DppABCDF full transporter (Escherichia coli, UniProt P0AAG0+P37313, P0AAG0:E179Q/P37313:E187Q).
T3 construct: gene dppD; heteropentamer; structure: DppA C-terminal His-tag and Strep tag, GDN; ATPase: DppBCDF in MSP1E3D1/POPG nanodiscs plus separately purified DppA; Dipeptide transport system permease protein DppB; Dipeptide transport system permease protein DppC
T3 sequence (P0AAG0 whole entry E179Q, one chain of several): as the sequence (P0AAG0 whole entry, one chain of several) above, with E179Q counted along it
T3 sequence (P37313 whole entry E187Q, one chain of several): as the sequence (P37313 whole entry, one chain of several, further chain) above, with E187Q counted along it
T3 sequence (P0AEF8 whole entry partner, one chain of several): as the sequence (P0AEF8 whole entry, one chain of several, further chain) above
T3 sequence (P0AEG1 whole entry partner, one chain of several): as the sequence (P0AEG1 whole entry, one chain of several, further chain) above
The experiment in a line: cryo-EM structure of the complex ([…] Å). It counts as binding. The following applies: 2 mM ATPγS, 2 mM MgCl2, on ice; outward-facing; two molecules at the DppD-DppF interface.

The target in assay [3] is T4, DppBCDF translocator (cluster site of DppD) (Escherichia coli, UniProt P0AAG0).
T4 construct: same complex as P2: heterotetramer, C-terminal Strep-tag II, expressed in E. coli, GDN detergent; with Dipeptide transport system permease protein DppB; Dipeptide transport system permease protein DppC
T4 sequence (P0AAG0 whole entry): as the sequence (P0AAG0 whole entry, one chain of several) above
T4 sequence (P0AEF8 whole entry partner): as the sequence (P0AEF8 whole entry, one chain of several, further chain) above
T4 sequence (P0AEG1 whole entry partner): as the sequence (P0AEG1 whole entry, one chain of several, further chain) above
T4 sequence (P37313 whole entry partner): as the sequence (P37313 whole entry, one chain of several, further chain) above
Briefly: cryo-EM structure of the complex ([…] Å). It counts as binding. The following applies: cluster in DppD, ligands Cys284, Cys290, Cys297, Cys315; 2 mM DTT.

Assay [4] has as its target T5, DppBCDF translocator (nucleotide and cluster site of DppF) (Escherichia coli, UniProt P37313).
T5 construct: heterotetramer, C-terminal Strep-tag II, expressed in E. coli, DDM then GDN detergent; with Dipeptide transport system permease protein DppB; Dipeptide transport system permease protein DppC
Briefly: cryo-EM structure of the complex ([…] Å). The following applies: cluster in DppF, ligands Cys293, Cys299, Cys306, Cys323; 2 mM DTT. It counts as binding.

T5 sequence (P37313 whole entry): as the sequence (P37313 whole entry, one chain of several, further chain) above
T5 sequence (P0AEF8 whole entry partner): as the sequence (P0AEF8 whole entry, one chain of several, further chain) above
T5 sequence (P0AEG1 whole entry partner): as the sequence (P0AEG1 whole entry, one chain of several, further chain) above
T5 sequence (P0AAG0 whole entry partner): as the sequence (P0AAG0 whole entry, one chain of several) above

As for `C[C@H](N)C(=O)N[C@@H](C)C(=O)O` [AA, Ala-Ala] (H-Ala-Ala-OH), on DppA, the Kd was ~13.9 nM.
As to `Nc1ncnc2c1ncn2[C@@H]1O[C@H](COP(=O)(O)OP(=O)(O)OP(=O)(O)O)[C@@H](O)[C@H]1O` [ATP], the ATPase activity entry in assay [1] is “high ATPase activity is observed when DppA was supplied in the assay”.
As to `Nc1ncnc2c1ncn2[C@@H]1O[C@H](COP(=O)(O)OP(=O)(O)OP(O)(O)=S)[C@@H](O)[C@H]1O` [ATPγS], the “cryo-EM structure of the complex (2.73 Å)” value in assay [2] is “two ATPγS molecules bound at the interface of the two NBDs”.
In the case of `CC(C)C[C@H](NC(=O)CN)C(=O)O` [GL, Gly-Leu], the Kd on DppA was ~2200 nM.
`[S]12[Fe]3[S]4[Fe]1[S]1[Fe]2[S]3[Fe]41` [[4Fe-4S] cluster]: the “cryo-EM structure of the complex (3.2 Å)” value in assay [3] was “The [4Fe-4S] cluster in DppD is coordinated by Cys284, Cys290, Cys297 and Cys315”; in assay [4], “the [4Fe-4S] cluster in DppF is coordinated by Cys293, Cys299, Cys306 and Cys323”.
